For series [1] the following is noted: in vivo; cited from earlier work.
For series [2], the system named is several types of adenovirus. As to conditions: cited from earlier work.
In a further series the test system is H9N2. As to conditions: MDCKII cells, H9N2 MOI 0,1, Heparin 5 I.U. per well and/or MgCl2 5 µmol per well.
The test system of series [3] is HAdV5. The conditions noted are these: HeLa cells, HAdV5 1000 vpc, heparin 5 I.U. per well and/or MgCl2 5 µmol per well 4 hrs prior to infection, 26 hrs post infection.
The subject of series [4] is HAdV5.
Series [5] concerns human adenovirus type 5 (HAdV5). As to conditions: solely MgCl2, with 25 µmol MgCl2, HAdV5 1000 vpc, CHO-K1 cells.
A further series concerns Adenovirus type 10. The series is described as follows: Zinc test series: antiviral effect, adenovirus type 10. It counts as cell-based. The text has this: (§1) The inventors have also used zinc for some test series (not described in the Examples section). […] Furthermore, the antiviral effect of zinc was not apparent for all adenoviruses tested. An antiviral effect of zinc was detectable only for adenovirus type 5.

The test system of a further series is adenovirus type 5. The series is described as follows: Zinc test series: antiviral effect, adenovirus type 5. It is filed as cell-based.
Source text: as §1

A short description of series [6]: Zinc test series: cytotoxic effect (not described in the Examples). It counts as cell-based.
Source text: as §1

These results are taken from EP3791884A1, “COMBINATION OF HEPARIN AND MAGNESIUM SALT FOR THE TREATMENT OF VIRAL INFECTIONS” (Bunz, Oskar, priority 2019, dated 2021).

Like-named read-outs stand apart in the source and are kept apart here.

As to `Nc1ccn(C[C@@H](CO)OCP(=O)(O)O)c(=O)n1` [Cidofovir], in series [1], the toxicity entry is “nephrotoxic”.
Consider `Nc1nc(O)c2ncn(COC(CO)CO)c2n1` [Ganciclovir], for which, in [2], the efficiency against adenovirus entry was “not against adenovirus”. In addition, in series [2] (in vitro, relative to plasma), the “half-maximal effective concentration (EC50)” value is “three times higher than in plasma”.
Regarding `[Cl-].[Cl-].[Mg+2]` [MgCl2, magnesium chloride], the “infected cells (immunofluorescence)” value in the series with H9N2 is “slight decrease”. Moreover, the luciferase expression levels in the series with HAdV10 (only MgCl2 and virus) is 12%; with HAdV10 (only applying virus and MgCl2), 10%; in the series on HAdV5 [4] (only MgCl2 and virus, compared to untreated cells solely infected with virus), 7%; in the series with HAdV5 [4] (only applying virus and MgCl2), “about 32%”. The “median fluorescent intensity (MFI)” value in the series on HAdV5 [3] worked out at 41%. This compound also showed a luciferase values in series [5] of 40%.
Turning to `NC(=O)c1ncn([C@@H]2O[C@H](CO)[C@@H](O)[C@H]2O)n1` [Ribavirin], in [2] (in vitro), the “antiviral activity against HAdV species C” value is listed as “antiviral activity” and the “antiviral activity against species A, B, D” value is listed as “limited activation”.
Turning to `[Zn]` [zinc], in the series on Adenovirus type 10, the “infection efficiencies in cells treated with zinc” value is “increased infection efficiencies”. For the same compound, the antiviral effect result in the series on adenovirus type 5 is reported as “detectable”. Further, in [6], the cytotoxic effect result was “very strong cytotoxic effect”.
